According to ChEMBL document CHEMBL1156950, “Synthesis and biological evaluation of 4-anilinoquinolines as potent inhibitors of epidermal growth factor receptor” (J Med Chem, 2010):
Activity calls are given as the source filed them. The calls are words filed in the database; no cut-off is given here.

Assays:
[1] = cells; details: Mus musculus, BaF3, 96 h
[2] = biological target: Epidermal growth factor receptor (Homo sapiens, UniProt P00533, L858R); experiment: Inhibition of EGFR Leu858Arg mutant by HTRF assay; format: protein assay
[3] = cells; details: Mus musculus, BaF3, 96 h; remark: listed apart in the source
Description: Growth inhibition of mouse BA/F3 cells expressing EGFR Del1 and Thr790Met mutant after 96 hrs by cell titer-glo assay

[4] = biological target: T1, Epidermal growth factor receptor (Homo sapiens, UniProt P00533); experiment: Inhibition of wild type EGFR by HTRF assay
[5] = biological target: Epidermal growth factor receptor (Homo sapiens, UniProt P00533, L858R/T790M); experiment: Inhibition of EGFR Leu858Arg and Thr790Met mutant by HTRF assay; format: protein assay
[6] = cells; details: Mus musculus, BaF3, 96 h; remark: listed apart in the source
Description: Growth inhibition of mouse BA/F3 cells expressing EGFR Del1 mutant after 96 hrs by cell titer-glo assay

[7] = cells; details: Mus musculus, BaF3, 96 h; remark: listed apart in the source
Description: Growth inhibition of mouse BA/F3 cells expressing EGFR Del3 and Thr790Met mutant after 96 hrs by cell titer-glo assay

[8] = cells; details: Mus musculus, BaF3, 96 h; remark: listed apart in the source
Description: Growth inhibition of mouse BA/F3 cells expressing EGFR Del3 mutant after 96 hrs by cell titer-glo assay

[9] = cells; details: Mus musculus, BaF3, 96 h; remark: listed apart in the source
Description: Growth inhibition of mouse BA/F3 cells expressing EGFR Del5 mutant after 96 hrs by cell titer-glo assay

[10] = cells; details: Mus musculus, BaF3, 96 h; remark: listed apart in the source
[11] = cells; details: Mus musculus, BaF3, 96 h; remark: listed apart in the source
Description: Growth inhibition of mouse BA/F3 cells expressing EGFR Del5 and Thr790Met mutant after 96 hrs by cell titer-glo assay

[12] = system: PC-9; experiment: Cytotoxicity against human PC9 cells expressing 746-750 sequence deleted EGFR assessed as cell viability at 0.001 to 10 uM after 96 hrs by cell titer-glo assay; format: functional, cell-based
[13] = system: NCI-H1975; experiment: Cytotoxicity against human NCI-H1975 cells expressing EGFR T790M and L858R mutant at 0.001 to 10 uM after 96 hrs by cell titer-glo assay; format: functional, cell-based
[14] = biological target: T1, Epidermal growth factor receptor; experiment: Inhibition of 746-750 sequence deleted EGFR autophosphorylation in human PC9 cells after 24 hrs by immunoblotting; format: cell-based; details: PC-9

Sequence of Epidermal growth factor receptor (Homo sapiens, UniProt P00533, L858R) (P00533 25-1210 L858R limits assumed): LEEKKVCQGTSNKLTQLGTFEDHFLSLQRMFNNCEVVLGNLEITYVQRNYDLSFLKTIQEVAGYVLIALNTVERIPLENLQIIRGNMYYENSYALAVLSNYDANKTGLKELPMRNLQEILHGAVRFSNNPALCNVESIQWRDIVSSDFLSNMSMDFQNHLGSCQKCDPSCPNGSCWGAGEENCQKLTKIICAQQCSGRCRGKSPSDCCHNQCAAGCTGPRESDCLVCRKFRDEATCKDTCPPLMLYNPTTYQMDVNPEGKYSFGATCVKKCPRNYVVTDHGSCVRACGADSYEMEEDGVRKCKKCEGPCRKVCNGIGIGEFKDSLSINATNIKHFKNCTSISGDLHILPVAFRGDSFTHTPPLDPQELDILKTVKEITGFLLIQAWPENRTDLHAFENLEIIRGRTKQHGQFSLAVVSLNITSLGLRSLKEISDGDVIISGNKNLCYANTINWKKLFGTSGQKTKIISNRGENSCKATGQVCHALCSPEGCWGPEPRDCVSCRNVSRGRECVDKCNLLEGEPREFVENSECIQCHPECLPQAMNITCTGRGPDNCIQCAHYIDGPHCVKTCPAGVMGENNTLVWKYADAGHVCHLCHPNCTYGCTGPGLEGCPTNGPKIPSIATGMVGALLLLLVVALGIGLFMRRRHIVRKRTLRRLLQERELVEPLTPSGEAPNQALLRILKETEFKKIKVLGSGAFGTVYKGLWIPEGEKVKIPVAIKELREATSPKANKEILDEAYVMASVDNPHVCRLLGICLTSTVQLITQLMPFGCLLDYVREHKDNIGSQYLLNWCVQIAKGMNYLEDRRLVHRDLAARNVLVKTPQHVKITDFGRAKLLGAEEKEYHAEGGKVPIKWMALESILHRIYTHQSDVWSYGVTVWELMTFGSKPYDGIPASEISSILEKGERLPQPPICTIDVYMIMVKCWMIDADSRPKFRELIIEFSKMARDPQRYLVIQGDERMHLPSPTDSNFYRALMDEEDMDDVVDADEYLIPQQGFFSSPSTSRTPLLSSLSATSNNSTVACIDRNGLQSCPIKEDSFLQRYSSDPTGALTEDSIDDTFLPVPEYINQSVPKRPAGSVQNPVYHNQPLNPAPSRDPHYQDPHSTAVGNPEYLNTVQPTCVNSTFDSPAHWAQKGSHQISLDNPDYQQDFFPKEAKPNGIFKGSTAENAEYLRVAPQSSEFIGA
Sequence of Epidermal growth factor receptor (Homo sapiens, UniProt P00533, L858R/T790M) (P00533 25-1210 T790M/L858R limits assumed): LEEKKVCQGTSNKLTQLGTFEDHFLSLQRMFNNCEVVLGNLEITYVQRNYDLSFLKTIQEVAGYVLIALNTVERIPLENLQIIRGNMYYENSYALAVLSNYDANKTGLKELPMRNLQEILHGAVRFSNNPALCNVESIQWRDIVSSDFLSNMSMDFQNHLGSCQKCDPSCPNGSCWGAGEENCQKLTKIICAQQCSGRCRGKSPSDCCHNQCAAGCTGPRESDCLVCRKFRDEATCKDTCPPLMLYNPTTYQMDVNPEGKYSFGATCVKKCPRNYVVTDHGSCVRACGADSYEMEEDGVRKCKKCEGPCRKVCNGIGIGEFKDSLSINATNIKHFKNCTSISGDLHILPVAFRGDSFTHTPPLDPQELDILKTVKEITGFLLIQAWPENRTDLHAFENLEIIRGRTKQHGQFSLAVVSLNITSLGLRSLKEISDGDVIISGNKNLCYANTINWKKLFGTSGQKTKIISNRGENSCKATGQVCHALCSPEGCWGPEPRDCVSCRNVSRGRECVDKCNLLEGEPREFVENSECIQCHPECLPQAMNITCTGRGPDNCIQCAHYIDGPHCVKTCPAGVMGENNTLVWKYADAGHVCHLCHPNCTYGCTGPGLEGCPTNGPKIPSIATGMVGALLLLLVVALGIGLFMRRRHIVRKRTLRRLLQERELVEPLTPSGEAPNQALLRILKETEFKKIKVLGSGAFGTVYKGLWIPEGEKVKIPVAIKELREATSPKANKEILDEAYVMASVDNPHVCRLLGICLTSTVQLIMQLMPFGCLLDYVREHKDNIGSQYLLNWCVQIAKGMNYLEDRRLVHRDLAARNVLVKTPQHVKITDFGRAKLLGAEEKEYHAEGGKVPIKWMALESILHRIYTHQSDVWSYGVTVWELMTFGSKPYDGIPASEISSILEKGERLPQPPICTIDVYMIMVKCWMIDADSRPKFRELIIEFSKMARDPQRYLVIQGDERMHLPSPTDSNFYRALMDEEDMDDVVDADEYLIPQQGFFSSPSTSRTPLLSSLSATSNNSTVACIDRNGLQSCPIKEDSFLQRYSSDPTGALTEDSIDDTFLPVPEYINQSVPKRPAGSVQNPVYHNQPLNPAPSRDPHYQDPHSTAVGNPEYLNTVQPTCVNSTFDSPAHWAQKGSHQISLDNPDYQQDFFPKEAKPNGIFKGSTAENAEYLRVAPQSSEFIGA
T1 sequence (P00533 whole entry): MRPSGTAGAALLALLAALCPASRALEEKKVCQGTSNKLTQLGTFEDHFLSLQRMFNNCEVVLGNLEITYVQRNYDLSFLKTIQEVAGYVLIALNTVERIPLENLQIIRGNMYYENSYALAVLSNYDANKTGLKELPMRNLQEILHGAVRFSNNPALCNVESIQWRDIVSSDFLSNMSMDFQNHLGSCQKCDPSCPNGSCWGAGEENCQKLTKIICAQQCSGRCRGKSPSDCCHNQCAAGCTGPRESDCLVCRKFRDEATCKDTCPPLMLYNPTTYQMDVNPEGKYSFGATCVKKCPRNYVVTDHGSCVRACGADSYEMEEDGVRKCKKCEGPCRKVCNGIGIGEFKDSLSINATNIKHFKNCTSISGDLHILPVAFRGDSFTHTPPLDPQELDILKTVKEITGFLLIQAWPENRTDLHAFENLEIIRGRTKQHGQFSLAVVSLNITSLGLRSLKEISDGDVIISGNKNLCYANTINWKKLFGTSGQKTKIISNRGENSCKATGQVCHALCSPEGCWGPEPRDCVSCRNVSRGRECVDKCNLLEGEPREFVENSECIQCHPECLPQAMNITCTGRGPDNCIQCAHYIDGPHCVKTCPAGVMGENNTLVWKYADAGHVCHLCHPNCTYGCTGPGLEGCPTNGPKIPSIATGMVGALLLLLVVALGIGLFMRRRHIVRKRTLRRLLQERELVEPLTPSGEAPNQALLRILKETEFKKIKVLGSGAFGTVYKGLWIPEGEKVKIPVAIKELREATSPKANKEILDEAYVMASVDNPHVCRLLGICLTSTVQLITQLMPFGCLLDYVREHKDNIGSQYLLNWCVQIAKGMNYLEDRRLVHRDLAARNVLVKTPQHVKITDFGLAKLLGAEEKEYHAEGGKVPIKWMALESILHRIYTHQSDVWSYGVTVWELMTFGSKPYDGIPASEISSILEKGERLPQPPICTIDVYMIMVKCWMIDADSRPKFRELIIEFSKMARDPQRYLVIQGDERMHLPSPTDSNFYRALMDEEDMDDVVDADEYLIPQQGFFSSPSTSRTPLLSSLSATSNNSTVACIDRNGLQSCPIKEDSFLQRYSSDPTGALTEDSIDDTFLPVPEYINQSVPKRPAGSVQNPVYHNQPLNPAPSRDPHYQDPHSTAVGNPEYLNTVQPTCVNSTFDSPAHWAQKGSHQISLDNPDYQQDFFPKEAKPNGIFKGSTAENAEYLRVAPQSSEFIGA

With `C#Cc1cccc(Nc2ccnc3cc(OCCOC)c(OCCOC)cc23)c1` as the molecule, how does the GI50 [1] read?
The GI50 was < 500 nM.

And the IC50 [2]?
Its IC50 is 14 nM.

What about the GI50 [3] of the same molecule?
Its GI50 is > 500 nM.

What about the IC50 [4] of the same molecule?
The IC50 was 30 nM.

And the IC50 [5]?
The IC50 was 1500 nM.

And the GI50 [6]?
The GI50 was < 500 nM.

What about the GI50 [7] of the same molecule?
The GI50 was > 500 nM.

What about the GI50 [8] of the same molecule?
The GI50 was > 500 nM.

What about the GI50 [9] of the same molecule?
Its GI50 is > 5000 nM.

And the GI50 [10]?
The GI50 was > 500 nM.

And the GI50 [11]?
Its GI50 is > 5 µM.

Which GI50 [1] does the source give for `C=CC(=O)Nc1ccc2ncnc(Nc3cccc(Br)c3)c2c1` here?
Its GI50 is < 500 nM.

What about the GI50 [3] of the same molecule?
Its GI50 is > 500 nM.

And the GI50 [6]?
The GI50 was < 500 nM.

What about the GI50 [7] of the same molecule?
The GI50 was < 500 nM.

And the GI50 [8]?
Its GI50 is < 500 nM.

What about the GI50 [9] of the same molecule?
Its GI50 is < 500 nM.

And the GI50 [10]?
Its GI50 is < 500 nM.

And the GI50 [11]?
Its GI50 is < 0.5 µM.

With `C#Cc1cccc(Nc2ncnc3cc(OC)c(OC)cc23)c1` as the molecule, how does the GI50 [1] read?
Its GI50 is < 500 nM.

What about the IC50 [2] of the same molecule?
Its IC50 is < 1 nM.

What about the GI50 [3] of the same molecule?
Its GI50 is > 500 nM.

What about the IC50 [4] of the same molecule?
Its IC50 is < 1 nM.

And the IC50 [5]?
Its IC50 is 140 nM.

And the GI50 [6]?
The GI50 was < 500 nM.

And the GI50 [7]?
Its GI50 is > 5000 nM.

What about the GI50 [8] of the same molecule?
The GI50 was < 500 nM.

What about the GI50 [9] of the same molecule?
Its GI50 is < 500 nM.

What about the GI50 [10] of the same molecule?
The GI50 was > 5000 nM.

And the GI50 [11]?
Its GI50 is > 5 µM.

For `CCC(=O)Nc1ccc2nccc(Nc3cccc(Br)c3)c2c1`, which GI50 [1] is on record?
Its GI50 is > 500 nM.

What about the GI50 [3] of the same molecule?
The GI50 was > 500 nM.

What about the GI50 [6] of the same molecule?
The GI50 was < 500 nM.

What about the GI50 [7] of the same molecule?
Its GI50 is > 500 nM.

What about the GI50 [8] of the same molecule?
Its GI50 is < 500 nM.

What about the GI50 [9] of the same molecule?
Its GI50 is > 500 nM.

What about the GI50 [10] of the same molecule?
Its GI50 is > 500 nM.

And the GI50 [11]?
The GI50 was > 0.5 µM.

What does the source list for `C#Cc1cccc(Nc2ncnc3cc(OCCOC)c(OCCOC)cc23)c1` [ERLOTINIB]?
GI50 [1]: < 500 nM; Activity [12]: Active; Activity [13]: Active; GI50 [3]: > 5000 nM; GI50 [6]: < 500 nM; GI50 [7]: > 5000 nM; GI50 [8]: < 500 nM; GI50 [9]: < 500 nM; GI50 [10]: > 5000 nM; GI50 [11]: > 5 µM

Which Activity [14] does the source give for `C=CC(=O)Nc1ccc2nccc(Nc3cccc(Br)c3)c2c1` here?
Its Activity is “Dose-dependent effect”.

What about the GI50 [1] of the same molecule?
Its GI50 is < 500 nM.

And the IC50 [2]?
The IC50 was < 1 nM.

What about the Activity [12] of the same molecule?
Its Activity is “Active”.

What about the Activity [13] of the same molecule?
The Activity was “Active”.

And the GI50 [3]?
The GI50 was > 500 nM.

And the IC50 [4]?
Its IC50 is < 1 nM.

What about the IC50 [5] of the same molecule?
Its IC50 is 3.2 nM.

What about the GI50 [6] of the same molecule?
The GI50 was < 500 nM.

And the GI50 [7]?
The GI50 was > 500 nM.

And the GI50 [8]?
The GI50 was < 500 nM.

What about the GI50 [9] of the same molecule?
Its GI50 is < 500 nM.

And the GI50 [10]?
The GI50 was > 500 nM.

And the GI50 [11]?
Its GI50 is > 0.5 µM.

What does the source list for `C#Cc1cccc(Nc2ccnc3cc(OC)c(OC)cc23)c1`?
GI50 [1]: < 500 nM; IC50 [2]: 4 nM; GI50 [3]: > 5000 nM; IC50 [4]: 19 nM; IC50 [5]: 1500 nM; GI50 [6]: < 500 nM; GI50 [7]: > 5000 nM; GI50 [8]: < 500 nM; GI50 [9]: < 500 nM; GI50 [10]: > 5000 nM; GI50 [11]: > 5 µM
